The source of these data is patent US20120035155A1, “INDOLE-2-CARBOXAMIDE DEIVATIVE” (MSD K.K., priority 2009, published 2012).

This test addresses T1, human QRFP receptor (GPR103) (Homo sapiens, UniProt Q96P65).
T1 construct: expressed in transfected cells; host or cells: CHO-K1 NFAT β-Lactamase (Aurora); membrane sample
T1 sequence (Q96P65 1-431): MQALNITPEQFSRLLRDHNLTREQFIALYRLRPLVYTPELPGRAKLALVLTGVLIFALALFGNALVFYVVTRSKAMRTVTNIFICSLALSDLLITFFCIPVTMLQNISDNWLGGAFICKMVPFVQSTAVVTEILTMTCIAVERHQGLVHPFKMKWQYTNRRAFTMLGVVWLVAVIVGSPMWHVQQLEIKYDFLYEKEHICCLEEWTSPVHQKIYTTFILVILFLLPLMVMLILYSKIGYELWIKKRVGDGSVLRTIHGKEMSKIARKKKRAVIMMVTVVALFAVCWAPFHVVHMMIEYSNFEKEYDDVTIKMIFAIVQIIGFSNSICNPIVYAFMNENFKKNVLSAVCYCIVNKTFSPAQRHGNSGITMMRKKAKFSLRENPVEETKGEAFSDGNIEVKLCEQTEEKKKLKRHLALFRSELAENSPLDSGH
In words: QRFP43-Binding Inhibitory Test. Conditions: inhibition of specific [125I] QRFP43 binding; membrane sample of CHO-K1 NFAT β-Lactamase cells expressing GPR103; 25° C., 1 hour. An excerpt:
A cDNA sequence [Accession No. NM_198179] coding for a human QRFP receptor (GPR103) was cloned in an expression vector pEF1V5-H isB (by Invitrogen). The resulting expression vector was transfected in a host cell CHO-K1 NFAT β-Lactamase (by Aurora), according to a cationic lipid process [see Proceedings of the National Academy of Sciences of the United States of America, Vol. 84, p. 7413, 1987], thereby producing a QRFP receptor (GPR103).
A membrane sample prepared from the cells having expressed a QRFP receptor (GPR103) was incubated in an assay buffer (50 mM Tris-HCl, 1 mM EDTA and 0.1% BSA, pH 7.4) along with a test compound and 20,000 cpm [^125I] QRFP43 (by Perkin Elmer) therein, at 25° C. for 1 hour, and then filtered through a glass filter GF/C. After washed with 50 mM Tris-HCl (containing 2 mM EDTA, 10 mM MgCl2 and 0.04% Tween-20) buffer (pH 7.4), the radioactivity on the glass filter was determined. The non-specific binding was determined in the presence of 1 μM peptide QRFP43, and the 50% inhibitory concentration (IC50) of the test compound to the specific [^125I] QRFP43 binding was computed [see Endocrinology, Vol. 131, p. 2090, 1992].

One may read the IC50 as the point on the concentration scale where inhibition reaches its midpoint. A higher IC50 goes with a need for much substance. For the compound `Cn1c(C(=O)NCc2ccc3c(c2)CCNC3)cc2ccccc21` [Example 1, 1-Methyl-N-(1,2,3,4-tetrahydroisoquinolin-6-ylmethyl)-1H-indole-2-carboxamide], the IC50 was determined as 0.061 µM.

As for `CCN1CCc2cc(CNC(=O)c3cc4ccccc4n3C)ccc2C1` [Example 2, N-(2-ethyl-1,2,3,4-tetrahydroisoquinolin-6-ylmethyl)-1-methyl-1H-indole-2-carboxamide], the IC50 worked out at 0.049 µM.

Turning to `Cn1c(C(=O)NCc2ccc3c(c2)CCN(C2CCCC2)C3)cc2ccccc21` [Example 3, N-(2-cyclopentyl-1,2,3,4-tetrahydroisoquinolin-6-ylmethyl)-1-methyl-1H-indole-2-carboxamide], the IC50 worked out at 0.045 µM.

With `CN(C)Cc1ccc2c(c1)CCN(C(=O)c1cc3ccccc3n1C)C2` [Example 4, [6-Dimethylaminomethyl-3,4-dihydro-2(1H)isoquinolin-2-yl](1-methyl-1H-indol-2-yl)methanone], the IC50 was determined as 0.0058 µM. This IC50 lies about 7.8-fold lower than the previous one.

In turn, `CNCc1ccc2c(c1)CCN(C(=O)c1cc3ccccc3n1C)C2` [Example 5, [6-Methylaminomethyl-3,4-dihydro-2(1H)isoquinolin-2-yl](1-methyl-1H-indol-2-yl)methanone] showed an IC50 of 0.019 µM.

As for `Cn1c(C(=O)N2CCc3cc(CN4CCC4)ccc3C2)cc2ccccc21` [Example 6, [6-(Azetidin-1-ylmethyl)-3,4-dihydro-2(1H)isoquinolin-2-yl](1-methyl-1H-indol-2-yl)methanone], the IC50 came to 0.043 µM.

The compound `CN(C)Cc1ccc2c(c1)CCN(C(=O)c1cc3cc(Cl)ccc3n1C)C2` [Example 7, [6-Dimethylaminomethyl-3,4-dihydro-2(1H)isoquinolin-2-yl](5-chloro-1-methyl-1H-indol-2-yl)methanone] registered an IC50 of 0.0061 µM.

Take `CNCc1ccc2c(c1)CCN(C(=O)c1cc3cc(Cl)ccc3n1C)C2` [Example 8, [6-methylaminomethyl-3,4-dihydro-2(1H)isoquinolin-2-yl](5-chloro-1-methyl-1H-indol-2-yl)methanone]: the IC50 turned out to be 0.025 µM.
